# Results reported in patent publication US20260356819A1, “OXOISOINDOLINYL-SUBSTITUTED […] DERIVATIVE AND USE THEREOF” (GLUETACS THERAPEUTICS (SHANGHAI) CO., LTD., priority 2023, published 2026).
# How the values were obtained:
# Type in all cases: cell-based
# Settings in all cases: compounds at 50 nM and 500 nM
# GSPT1 = target: T1, GSPT1 (Homo sapiens, UniProt P15170+Q96SW2); experiment: Western blot degradation of GSPT1 in hPBMCs (24 h)
# T1 construct: The supernatant was aspirated as the extracted total cell protein; endogenous in cells; host or cells: human peripheral blood mononuclear cells (hPBMCs)
# T1 sequence (P15170 whole entry): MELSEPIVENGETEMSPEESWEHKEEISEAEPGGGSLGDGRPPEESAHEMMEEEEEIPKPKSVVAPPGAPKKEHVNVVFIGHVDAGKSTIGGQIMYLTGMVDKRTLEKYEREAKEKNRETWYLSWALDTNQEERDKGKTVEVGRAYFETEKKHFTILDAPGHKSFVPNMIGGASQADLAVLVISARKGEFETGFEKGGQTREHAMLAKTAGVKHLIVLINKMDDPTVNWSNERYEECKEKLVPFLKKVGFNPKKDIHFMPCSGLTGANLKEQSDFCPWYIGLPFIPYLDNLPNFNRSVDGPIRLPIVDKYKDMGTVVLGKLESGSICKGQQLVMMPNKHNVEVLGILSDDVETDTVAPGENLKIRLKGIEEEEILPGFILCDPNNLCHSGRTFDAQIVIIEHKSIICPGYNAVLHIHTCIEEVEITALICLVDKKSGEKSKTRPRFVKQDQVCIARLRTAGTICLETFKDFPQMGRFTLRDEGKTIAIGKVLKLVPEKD
# T1 sequence (Q96SW2 whole entry): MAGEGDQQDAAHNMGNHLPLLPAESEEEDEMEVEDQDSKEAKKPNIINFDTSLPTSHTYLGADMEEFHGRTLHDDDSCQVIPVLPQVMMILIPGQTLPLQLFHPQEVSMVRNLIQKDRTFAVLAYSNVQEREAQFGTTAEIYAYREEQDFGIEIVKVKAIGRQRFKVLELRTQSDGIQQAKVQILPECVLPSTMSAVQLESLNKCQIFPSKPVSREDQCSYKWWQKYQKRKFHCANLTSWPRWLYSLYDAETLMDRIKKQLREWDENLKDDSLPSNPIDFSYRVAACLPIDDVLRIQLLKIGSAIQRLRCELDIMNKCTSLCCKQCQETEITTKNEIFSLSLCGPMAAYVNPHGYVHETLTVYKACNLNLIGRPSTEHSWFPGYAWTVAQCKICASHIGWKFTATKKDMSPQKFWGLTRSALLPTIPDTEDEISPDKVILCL
# T1 sequence (Q16531 whole entry partner): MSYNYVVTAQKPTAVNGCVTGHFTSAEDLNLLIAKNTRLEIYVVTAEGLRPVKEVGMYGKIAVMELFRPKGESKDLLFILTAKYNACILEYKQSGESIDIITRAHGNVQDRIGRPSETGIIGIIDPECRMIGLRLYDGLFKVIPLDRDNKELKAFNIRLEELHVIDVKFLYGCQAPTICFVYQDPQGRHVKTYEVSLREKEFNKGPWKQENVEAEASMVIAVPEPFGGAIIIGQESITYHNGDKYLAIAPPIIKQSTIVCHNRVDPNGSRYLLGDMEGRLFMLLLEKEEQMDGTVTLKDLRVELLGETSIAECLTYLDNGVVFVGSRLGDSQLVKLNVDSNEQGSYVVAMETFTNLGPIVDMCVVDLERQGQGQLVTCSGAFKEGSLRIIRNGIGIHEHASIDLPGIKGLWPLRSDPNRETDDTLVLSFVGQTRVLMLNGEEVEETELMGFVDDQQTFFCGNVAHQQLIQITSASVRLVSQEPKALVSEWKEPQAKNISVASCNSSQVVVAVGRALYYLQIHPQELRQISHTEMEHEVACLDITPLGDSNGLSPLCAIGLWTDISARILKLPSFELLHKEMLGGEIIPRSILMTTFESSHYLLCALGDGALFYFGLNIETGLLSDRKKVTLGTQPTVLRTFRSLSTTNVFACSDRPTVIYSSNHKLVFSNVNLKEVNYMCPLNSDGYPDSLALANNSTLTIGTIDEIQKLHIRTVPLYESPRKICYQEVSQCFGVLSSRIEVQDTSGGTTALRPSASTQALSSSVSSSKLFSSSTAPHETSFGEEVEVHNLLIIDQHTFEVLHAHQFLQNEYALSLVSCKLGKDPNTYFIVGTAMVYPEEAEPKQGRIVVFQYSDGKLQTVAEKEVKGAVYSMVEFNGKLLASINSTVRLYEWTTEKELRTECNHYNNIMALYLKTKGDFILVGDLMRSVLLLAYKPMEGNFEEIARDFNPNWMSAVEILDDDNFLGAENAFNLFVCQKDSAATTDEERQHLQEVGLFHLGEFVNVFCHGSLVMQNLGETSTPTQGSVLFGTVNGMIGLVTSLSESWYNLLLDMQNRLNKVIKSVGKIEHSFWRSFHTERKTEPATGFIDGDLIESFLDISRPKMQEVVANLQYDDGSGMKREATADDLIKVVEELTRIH
# Outline: (§1)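 hPBMCs (1×10^6 cells/mL) were treated with compound at 50 nM and 500 nM for 24 h, lysed in RIPA with protease inhibitors and analysed by SDS-PAGE/Western blot. Band grayscale, normalised to internal control, gave protein remaining (%); DC50 estimated versus DMSO bands.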
# IKZF2 = target: T2, IKZF2 (Homo sapiens, UniProt Q96SW2+Q9UKS7); experiment: Western blot degradation of IKZF2 in hPBMCs (24 h)
# T2 construct: The supernatant was aspirated as the extracted total cell protein; endogenous in cells; host or cells: human peripheral blood mononuclear cells (hPBMCs)
# Outline: as §1
# CK1α = target: T3, CK1α (Homo sapiens, UniProt P48729+Q96SW2); experiment: Western blot degradation of CK1α in hPBMCs (24 h)
# T3 construct: The supernatant was aspirated as the extracted total cell protein; endogenous in cells; host or cells: human peripheral blood mononuclear cells (hPBMCs)
# T3 sequence (P48729 whole entry): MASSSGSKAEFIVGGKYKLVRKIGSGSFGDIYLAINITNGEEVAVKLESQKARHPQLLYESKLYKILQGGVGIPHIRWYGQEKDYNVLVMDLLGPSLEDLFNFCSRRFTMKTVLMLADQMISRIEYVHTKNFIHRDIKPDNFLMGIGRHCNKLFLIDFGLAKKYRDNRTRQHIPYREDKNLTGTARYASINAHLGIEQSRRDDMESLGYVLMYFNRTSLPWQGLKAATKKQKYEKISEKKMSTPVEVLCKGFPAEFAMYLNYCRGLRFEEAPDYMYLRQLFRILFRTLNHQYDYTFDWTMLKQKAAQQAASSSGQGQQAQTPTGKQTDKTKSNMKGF
# T3 sequence (Q96SW2 whole entry): as the sequence (Q96SW2 whole entry) above
# T3 sequence (Q16531 whole entry partner): as the sequence (Q16531 whole entry partner) above
# Outline: as §1
# IKZF1 = target: T4, IKZF1 (Homo sapiens, UniProt Q13422+Q96SW2); experiment: Western blot degradation of IKZF1 in hPBMCs (24 h)
# T4 construct: The supernatant was aspirated as the extracted total cell protein; endogenous in cells; host or cells: human peripheral blood mononuclear cells (hPBMCs)
# T4 sequence (Q13422 whole entry): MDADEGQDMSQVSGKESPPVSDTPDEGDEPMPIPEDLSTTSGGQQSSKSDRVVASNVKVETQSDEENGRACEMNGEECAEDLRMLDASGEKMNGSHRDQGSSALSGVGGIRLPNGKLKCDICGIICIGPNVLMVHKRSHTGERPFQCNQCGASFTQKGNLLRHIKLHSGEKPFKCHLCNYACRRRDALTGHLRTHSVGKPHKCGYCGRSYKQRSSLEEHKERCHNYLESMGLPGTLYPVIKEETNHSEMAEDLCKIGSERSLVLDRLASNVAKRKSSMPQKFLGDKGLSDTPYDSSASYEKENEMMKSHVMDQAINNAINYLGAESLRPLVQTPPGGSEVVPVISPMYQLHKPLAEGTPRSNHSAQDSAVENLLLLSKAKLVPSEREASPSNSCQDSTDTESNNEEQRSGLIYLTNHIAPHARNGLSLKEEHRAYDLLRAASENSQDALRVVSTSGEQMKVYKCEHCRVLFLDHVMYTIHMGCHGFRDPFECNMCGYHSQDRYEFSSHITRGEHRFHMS
# T4 sequence (Q96SW2 whole entry): as the sequence (Q96SW2 whole entry) above
# T4 sequence (Q16531 whole entry partner): as the sequence (Q16531 whole entry partner) above
# Outline: as §1
# WEE1 = target: T5, WEE1 (Homo sapiens, UniProt P30291+Q96SW2); experiment: Western blot degradation of WEE1 in hPBMCs (24 h)
# T5 construct: The supernatant was aspirated as the extracted total cell protein; endogenous in cells; host or cells: human peripheral blood mononuclear cells (hPBMCs)
# T5 sequence (P30291 whole entry): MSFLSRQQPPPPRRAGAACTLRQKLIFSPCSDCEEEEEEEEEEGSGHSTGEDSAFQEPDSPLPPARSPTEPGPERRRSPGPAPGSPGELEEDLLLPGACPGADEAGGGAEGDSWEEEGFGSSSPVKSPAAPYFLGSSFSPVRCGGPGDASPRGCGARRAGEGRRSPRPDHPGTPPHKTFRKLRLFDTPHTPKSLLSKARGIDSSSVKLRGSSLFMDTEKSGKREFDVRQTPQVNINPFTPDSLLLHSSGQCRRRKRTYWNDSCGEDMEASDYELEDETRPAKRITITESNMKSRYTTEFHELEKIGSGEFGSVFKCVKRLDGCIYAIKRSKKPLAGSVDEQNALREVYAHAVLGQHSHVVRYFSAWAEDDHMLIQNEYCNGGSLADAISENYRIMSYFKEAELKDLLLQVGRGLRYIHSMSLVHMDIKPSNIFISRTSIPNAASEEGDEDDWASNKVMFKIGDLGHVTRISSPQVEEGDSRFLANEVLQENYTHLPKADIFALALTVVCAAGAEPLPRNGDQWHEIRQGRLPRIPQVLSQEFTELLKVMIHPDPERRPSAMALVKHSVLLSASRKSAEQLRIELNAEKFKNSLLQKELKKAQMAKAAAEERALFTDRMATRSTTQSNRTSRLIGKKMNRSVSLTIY
# T5 sequence (Q96SW2 whole entry): as the sequence (Q96SW2 whole entry) above
# T5 sequence (Q16531 whole entry partner): as the sequence (Q16531 whole entry partner) above
# Outline: as §1
# IKZF3 = target: T6, IKZF3 (Homo sapiens, UniProt Q96SW2+Q9UKT9); experiment: Western blot degradation of IKZF3 in hPBMCs (24 h)
# T6 construct: The supernatant was aspirated as the extracted total cell protein; endogenous in cells; host or cells: human peripheral blood mononuclear cells (hPBMCs)
# T6 sequence (Q9UKT9 whole entry): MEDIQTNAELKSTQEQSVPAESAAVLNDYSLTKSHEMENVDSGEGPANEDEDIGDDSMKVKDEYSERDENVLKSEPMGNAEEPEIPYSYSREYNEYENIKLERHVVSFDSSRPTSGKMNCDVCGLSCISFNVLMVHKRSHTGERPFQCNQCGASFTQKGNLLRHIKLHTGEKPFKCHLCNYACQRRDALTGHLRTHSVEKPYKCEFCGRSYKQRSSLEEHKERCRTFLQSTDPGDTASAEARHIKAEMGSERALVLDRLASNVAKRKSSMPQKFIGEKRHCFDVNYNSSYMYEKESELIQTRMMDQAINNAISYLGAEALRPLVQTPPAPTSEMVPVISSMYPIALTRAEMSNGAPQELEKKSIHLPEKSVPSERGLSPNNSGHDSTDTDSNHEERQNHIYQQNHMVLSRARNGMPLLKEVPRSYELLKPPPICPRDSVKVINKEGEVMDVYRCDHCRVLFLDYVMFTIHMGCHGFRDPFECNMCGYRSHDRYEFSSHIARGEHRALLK
# T6 sequence (Q96SW2 whole entry): as the sequence (Q96SW2 whole entry) above
# T6 sequence (Q16531 whole entry partner): as the sequence (Q16531 whole entry partner) above
# Outline: as §1
Compound,GSPT1 substrate protein remaining % (GSPT1),IKZF2 substrate protein remaining % (IKZF2),CK1α substrate protein remaining % (CK1α),IKZF1 substrate protein remaining % (IKZF1),WEE1 substrate protein remaining % (WEE1),IKZF3 substrate protein remaining % (IKZF3)
"O=C1CCN(N2Cc3cc(CN4CCN(c5n[nH]c6cc(F)ccc56)CC4)ccc3C2=O)C(=O)N1 [GT-07545, 1-(5-((4-(6-fluoro-1H-indazol-3-yl)piperazin-1-yl)methyl)-1-oxoisoindolin-2-yl)dihydropyrimidine-2,4(1H,3H)-dione]",A (0% ≤ substrate protein remaining % ≤80%),B (80%< substrate protein remaining % ≤100%),A (0% ≤ substrate protein remaining % ≤80%),A (0% ≤ substrate protein remaining % ≤80%),A (0% ≤ substrate protein remaining % ≤80%),B (80%< substrate protein remaining % ≤100%)
"O=C1CCN(N2Cc3cc(CN4CCC(c5ncnc6sc(-c7ccccc7)cc56)CC4)ccc3C2=O)C(=O)N1 [GT-08085, 1-(1-oxo-5-((4-(6-phenylthieno[2,3-d]pyrimidin-4-yl)piperidin-1-yl)methyl)isoindolin-2-yl)dihydropyrimidine-2,4(1H,3H)-dione]",A (0% ≤ substrate protein remaining % ≤80%),B (80%< substrate protein remaining % ≤100%),A (0% ≤ substrate protein remaining % ≤80%),B (80%< substrate protein remaining % ≤100%),B (80%< substrate protein remaining % ≤100%),B (80%< substrate protein remaining % ≤100%)
"O=C1CCN(N2Cc3cc(CN4CCN(c5noc6ccncc56)CC4)ccc3C2=O)C(=O)N1 [GT-07497, 1-(5-((4-(isoxazolo[4,5-c]pyridin-3-yl)piperazin-1-yl)methyl)-1-oxoisoindolin-2-yl)dihydropyrimidine-2,4(1H,3H)-dione]",A (0% ≤ substrate protein remaining % ≤80%),A (0% ≤ substrate protein remaining % ≤80%),A (0% ≤ substrate protein remaining % ≤80%),A (0% ≤ substrate protein remaining % ≤80%),A (0% ≤ substrate protein remaining % ≤80%),B (80%< substrate protein remaining % ≤100%)
"O=C1CCN(N2Cc3cc(CN4CCC(c5ccnc(Cl)c5Cl)CC4)ccc3C2=O)C(=O)N1 [GT-06390, 1-(5-((4-(2,3-dichloropyridin-4-yl)piperidin-1-yl)methyl)-1-oxoisoindolin-2-yl)dihydropyrimidine-2,4(1H,3H)-dione]",A (0% ≤ substrate protein remaining % ≤80%),B (80%< substrate protein remaining % ≤100%),B (80%< substrate protein remaining % ≤100%),B (80%< substrate protein remaining % ≤100%),B (80%< substrate protein remaining % ≤100%),B (80%< substrate protein remaining % ≤100%)
"O=C1CCN(N2C(=O)c3ccc(CN4CCN(c5ncnc6sccc56)CC4)cc3C2=O)C(=O)N1 [GT-08090, 2-(2,4-dioxotetrahydropyrimidin-1(2H)-yl)-5-((4-(thieno[2,3-d]pyrimidin-4-yl)piperazin-1-yl)methyl)isoindoline-1,3-dione]",A (0% ≤ substrate protein remaining % ≤80%),B (80%< substrate protein remaining % ≤100%),A (0% ≤ substrate protein remaining % ≤80%),B (80%< substrate protein remaining % ≤100%),A (0% ≤ substrate protein remaining % ≤80%),B (80%< substrate protein remaining % ≤100%)
"O=C1CCN(N2C(=O)c3ccc(CN4CCN(c5ccc(C(F)(F)F)cn5)CC4)cc3C2=O)C(=O)N1 [GT-06968, 2-(2,4-dioxotetrahydropyrimidin-1(2H)-yl)-5-((4-(5-(trifluoromethyl)pyridin-2-yl)piperazin-1-yl)methyl)isoindoline-1,3-dione]",B (80%< substrate protein remaining % ≤100%),A (0% ≤ substrate protein remaining % ≤80%),B (80%< substrate protein remaining % ≤100%),B (80%< substrate protein remaining % ≤100%),A (0% ≤ substrate protein remaining % ≤80%),B (80%< substrate protein remaining % ≤100%)
"O=C1CCN(N2C(=O)c3ccc(CN4CCN(c5ncncn5)CC4)cc3C2=O)C(=O)N1 [GT-07037, 5-((4-(1,3,5-triazin-2-yl)piperazin-1-yl)methyl)-2-(2,4-dioxotetrahydropyrimidin-1(2H)-yl)isoindoline-1,3-dione]",A (0% ≤ substrate protein remaining % ≤80%),B (80%< substrate protein remaining % ≤100%),B (80%< substrate protein remaining % ≤100%),B (80%< substrate protein remaining % ≤100%),B (80%< substrate protein remaining % ≤100%),B (80%< substrate protein remaining % ≤100%)
"O=C1CCN(N2C(=O)c3ccc(CN4CCC(N(c5ccccc5)c5ccccc5)CC4)cc3C2=O)C(=O)N1 [GT-05177, 2-(2,4-dioxotetrahydropyrimidin-1(2H)-yl)-5-((4-(diphenylamino)piperidin-1-yl)methyl)isoindoline-1,3-dione]",A (0% ≤ substrate protein remaining % ≤80%),B (80%< substrate protein remaining % ≤100%),B (80%< substrate protein remaining % ≤100%),B (80%< substrate protein remaining % ≤100%),B (80%< substrate protein remaining % ≤100%),B (80%< substrate protein remaining % ≤100%)
"O=C1CCN(N2Cc3cc(CN4CCN(c5cccs5)CC4)ccc3C2=O)C(=O)N1 [GT-05073, 1-(1-oxo-5-((4-(thiophen-2-yl)piperazin-1-yl)methyl)isoindolin-2-yl)dihydropyrimidine-2,4(1H,3H)-dione]",B (80%< substrate protein remaining % ≤100%),B (80%< substrate protein remaining % ≤100%),B (80%< substrate protein remaining % ≤100%),B (80%< substrate protein remaining % ≤100%),B (80%< substrate protein remaining % ≤100%),A (0% ≤ substrate protein remaining % ≤80%)
"O=C1CCN(N2C(=O)c3ccc(CN4CCN(c5c(Cl)cncc5Cl)CC4)cc3C2=O)C(=O)N1 [GT-07038, 5-((4-(3,5-dichloropyridin-4-yl)piperazin-1-yl)methyl)-2-(2,4-dioxotetrahydropyrimidin-1(2H)-yl)isoindoline-1,3-dione]",A (0% ≤ substrate protein remaining % ≤80%),A (0% ≤ substrate protein remaining % ≤80%),A (0% ≤ substrate protein remaining % ≤80%),A (0% ≤ substrate protein remaining % ≤80%),A (0% ≤ substrate protein remaining % ≤80%),A (0% ≤ substrate protein remaining % ≤80%)
"O=C1CCN(N2Cc3cc(CN4CCC(c5ncc6ccsc6n5)CC4)ccc3C2=O)C(=O)N1 [GT-08115, 1-(1-oxo-5-((4-(thieno[2,3-d]pyrimidin-2-yl)piperidin-1-yl)methyl)isoindolin-2-yl)dihydropyrimidine-2,4(1H,3H)-dione]",A (0% ≤ substrate protein remaining % ≤80%),B (80%< substrate protein remaining % ≤100%),A (0% ≤ substrate protein remaining % ≤80%),B (80%< substrate protein remaining % ≤100%),B (80%< substrate protein remaining % ≤100%),B (80%< substrate protein remaining % ≤100%)
